Activity calls are given as the source filed them. No cut-off for these calls is given here.
Columns and labels:
Plasmodium falciparum [1] = assay: Resistance modification index, ratio of IC50 for chloroquine in presence of compound to IC50 for chloroquine alone for chloroquine-resistant Plasmodium falciparum W2; type: functional
Plasmodium falciparum [2] = assay: Resistance modification index, ratio of compound IC10 to chloroquine IC50 in presence of IC10 compound for chloroquine-resistant Plasmodium falciparum W2; type: functional
Plasmodium falciparum [3] = assay: Antiplasmodial activity against chloroquine-resistant Plasmodium falciparum W2 by parasite lactate dehydrogenase assay; type: functional, organism-based
Plasmodium falciparum [4] = assay: Inhibition of chloroquine-resistant Plasmodium falciparum […] CRT expressed in Xenopus laevis oocytes assessed as [3H]-chloroquine uptake after 1 to 2 hrs; conditions: Oocyte
Plasmodium falciparum [5] = assay: Antiplasmodial activity against chloroquine-resistant Plasmodium falciparum W2 at 15.2 uM by parasite lactate dehydrogenase assay; type: functional, organism-based

| SMILES | Ratio IC50 (Plasmodium falciparum [1]) | Ratio IC50 (Plasmodium falciparum [2]) | IC10 (Plasmodium falciparum [3]) [µM] | IC50 (Plasmodium falciparum [3]) [µM] | IC50 (Plasmodium falciparum [4]; read-out: IC50) [µM] | inhibition (Plasmodium falciparum [5]) | IC50 (Plasmodium falciparum [4]) [µM] |
| --- | --- | --- | --- | --- | --- | --- | --- |
| CN(Cc1ccc(Cl)cc1)Cc1ccccc1CNC=O | 1.07 | 0.34 | 12 | 119 |  |  |  |
| CN(Cc1ccccc1)Cc1ccccc1CNC=O | 0.75 | 0.44 | 1.7 | 11 |  |  |  |
| CN(Cc1ccc(Cl)cc1)Cc1ccc(CN)cc1 | 0.25 |  |  | 63 | 140 |  |  |
| CN(Cc1ccc(N(C)C)cc1)Cc1cccc(CNC=O)c1 | 0.62 | 1 |  | 17 |  | inactive |  |
| CN(Cc1ccccc1)Cc1cccc(CNC=O)c1 | 0.84 | 0.29 | 9.7 | 21 |  |  |  |
| COc1ccc(CN(C)Cc2ccccc2CN)cc1 | 0.35 |  |  | > 233 |  |  |  |
| CN(Cc1ccc(Cl)cc1)Cc1cccc(CNC=O)c1 |  | 0.51 | 4 | 16 |  |  |  |
| CN(Cc1ccc(N(C)C)cc1)Cc1ccccc1CN | 0.36 |  |  | 37 |  |  |  |
| CN(Cc1ccc(N(C)C)cc1)Cc1cccc(CN)c1 | 0.24 |  |  | 30 |  |  |  |
| COc1ccc(CN(C)Cc2ccc(CN)cc2)cc1 | 0.33 |  |  | 91 |  |  |  |
| CN(Cc1ccc(Cl)cc1)Cc1ccc(CNC=O)cc1 | 0.9 | 0.46 | 5.4 | 29 |  |  |  |
| CN(Cc1ccc(CNC=O)cc1)Cc1ccc(N(C)C)cc1 | 1.36 | 0.46 | 15.2 | 33 | 657 |  |  |
| COc1ccc(CN(C)Cc2ccccc2CNC=O)cc1 | 1.22 | 0.32 | 12 | 29 |  |  |  |
| COc1ccc(CN(C)Cc2cccc(CN)c2)cc1 | 0.25 |  |  | 6.8 |  |  |  |
| CN(Cc1ccc(CN)cc1)Cc1ccc(N(C)C)cc1 | 0.21 |  |  | 11.7 |  |  |  |
| COc1ccc(CN(C)Cc2cccc(CNC=O)c2)cc1 | 1.19 | 0.51 | 9 | 48 |  |  |  |
| CN(Cc1ccc(N(C)C)cc1)Cc1ccccc1CNC=O | 1 | 0.49 | 15 | 42 |  |  |  |
| CN(Cc1ccc(Cl)cc1)Cc1cccc(CN)c1 | 0.31 |  |  | 30 | 101 |  |  |
| COc1ccc(CN(C)Cc2ccc(CNC=O)cc2)cc1 | 1.22 | 0.46 | 16 | 37 |  |  |  |
| COc1ccc(CCN(C)CCCC(C#N)(c2ccc(OC)c(OC)c2)C(C)C)cc1OC (configuration not stated) [VERAPAMIL] | 0.26 |  |  |  |  |  | 30 |
| CN(Cc1ccc(Cl)cc1)Cc1ccccc1CN | 0.096 |  |  | 5.7 |  |  |  |
| CN(Cc1ccccc1)Cc1ccccc1CN | 0.03 |  |  | 4.1 | 24 |  |  |
| CN(Cc1ccccc1)Cc1ccc(CN)cc1 | 0.24 |  |  | 29 |  |  |  |
| CN(Cc1ccccc1)Cc1cccc(CN)c1 | 0.08 |  |  | 2.8 |  |  |  |
| CN(Cc1ccccc1)Cc1ccc(CNC=O)cc1 | 1.13 | 0.43 | 18 | 56 |  |  |  |

Source: ChEMBL document CHEMBL1770111, “A series of structurally simple chloroquine chemosensitizing dibemethin derivatives that inhibit chloroquine transport by PfCRT” (Eur J Med Chem, 2011)
